Laboratory results: patent US9895549B2, “On-demand drug release using magneto-electric nanoparticles” (priority 2012, dated 2018)

Tested on: SKOV-3 cells
Experiment: Trypan-blue cell viability after field treatment, SKOV-3
Type: cell-based, human
Conditions: PTX drug +, no field, 24-hour
Text: After we confirmed that the drug-loaded MENs in the vicinity of the cancer cells indeed acted as a field-controlled valve to let the drug in (due to the effective nano-electroporation effect according to our hypothesis), we studied the viability of the cancer cells for different combinations of the drug and the carrier after the drug penetrated through the cell membrane. (Here, maintaining the remote field at 30 Oe provided the specificity to the cancer cells or, in other words, ensured that the healthy cells were intact.) The confocal images that were obtained after a 24-hour field treatment are in FIG. 13. The three key combinations of the carrier included (i) no particle, (ii) HER-2-GMO-MENs (Note: Here, HER-2 stands for the HER-2 biomarker antibody), and (iii) GMO-MENs, respectively. Accordingly, the three images (from left to right) in FIG. 13A show the morphology of the cancer cells after 24-hour treatment by (i) the free drug (with no particle carrier), (ii) drug-HER-2-GMO-MENs with no field applied, and (iii) drug-GMO-MENs in a 30-Oe d.c. field. The three control images in FIG. 13B show the morphology of the cancer cells after the 24-hour treatment by the same three combinations of the carrier with no drug present. In addition, we conducted the confocal imaging and the trypan-blue cell viability tests on both SKOV-3 and HOMEC cell lines after 24- and 36-hour field treatment. […]

Compound: CC(=O)O[C@H]1C(=O)[C@@]2(C)[C@H]([C@H](OC(=O)c3ccccc3)[C@]3(O)C[C@H](OC(=O)[C@H](O)[C@@H](NC(=O)c4ccccc4)c4ccccc4)C(C)=C1C3(C)C)[C@]1(OC(C)=O)CO[C@@H]1C[C@@H]2O [FREE, Paclitaxel]
- Percentage Cells Alive: 86 ± 8.8%
